{"source": "paper PMC4359714", "about": "(Naunyn-Schmiedeberg's Archives of Pharmacology, 2015)", "key": {"[1]": {"tested_on": "cold hypersensitivity after CFA or peripheral nerve injury models", "details": "ref Knowlton et al. [2011]; cited from earlier work"}, "[2]": {"tested_on": "rats", "test": "Open field activity", "assay_type": "in vivo, rat", "details": "5.6 mg/kg i.p., 30 min before; p < 0.05 vs vehicle (14,484 ± 1686 cm)", "method": "Rats were habituated in a reversed light cycle room in home cages for at least 1 week and acclimated to the testing room for 1 h prior to dosing. TRPM8 antagonist (10, 30, or 100 mg/kg) or vehicle (5 % Tween 80 in OraPlus®) was injected 2 h before placing an animal in the open-field apparatus. Open-field activity was measured using a system that counts interruptions of a set of photobeams for the course of 60 min (Kinder Scientific, Poway, CA). To begin a session, animals were removed from the home cage and placed individually into an independent Plexiglas box (41 cm L × 41 cm W × 38 cm H) surrounded by a frame consisting of 32 photocells (16Y and 16X) that track the movement of the animal. Photobeam breaks were used as an indication of activity and were measured as the following parameters per minute: basic movements (beam breaks), distance traveled (cm), time spent (s), and number of repetitive beam breaks (i.e., stereotypic movement). Chlordiazepoxide, which consistently elicits a decrease in open field activity, was used as a positive control. Chlordiazepoxide was formulated in saline at 5.6 mg/kg i.p. and dosed 30 min before the start of the open field assay."}, "[3]": {"tested_on": "SNL rats", "test": "SNL-induced tactile allodynia (von Frey, up-down method)", "assay_type": "in vivo, rat", "details": "200 mg/kg p.o.; p < 0.05 vs vehicle (4.4 ± 1.2 g)", "method": "SNL surgery was performed using aseptic surgical techniques and a stereomicroscope (Kim and Chung [1992]). Spinal nerve injury was caused by ligating the left L5 and L6 spinal nerves, with special care to avoid damage to the L4 spinal nerve or surrounding area. More specifically, under gaseous anesthesia with a mixture of O2 and isoflurane (3 % for induction and 2 % for maintenance), skin was excised and the longissimus lumborum muscle, part of articular processes (L4-S1), and the fascia above L6 spinal nerve were carefully removed. […]\nBehavioral testing Two weeks post surgery, mechanical sensitivity was measured by determining the median 50 % foot withdrawal threshold for von Frey filaments using the up-down method (Chaplan et al. [1994]). […] To avoid possible reflex responses, only abrupt withdrawal of the foot accompanied by pain indicative behaviors (namely paw flinching, shaking, or licking for more than 2 s) was recorded as a response. […]\nIn vivo IC50 and IC90 estimates using WDS model data were determined by fitting a sigmoidal dose-response curve to individual animal number of WDS versus resulting plasma concentration. Behavioral and electrophysiological data are expressed as mean ± standard error of the mean (S.E.M.). Results were analyzed using one-way analysis of variance (ANOVA) with Dunnett’s multiple-comparisons post-hoc test for significance relative to vehicle. […]"}, "[4]": {"tested_on": "TRPM8-mediated icilin-induced wet-dog shakes in rats", "test": "Icilin-induced wet-dog shake (WDS) model", "assay_type": "in vivo, rat", "method": "The TRPM8 antagonist (1, 3, or 10 mg/kg) or vehicle control (5 % Tween 80 in OraPlus®) was administered p.o. 90 min prior to administration of icilin (0.5 mg/kg, 1 ml/kg, i.p., 100 % PEG 400). […] Rats were viewed through transparent Plexiglas® observation cylinders that were placed on a custom, opaque, plastic apparatus such that one rat could not view another rat.\nIn vivo IC50 and IC90 estimates using WDS model data were determined by fitting a sigmoidal dose-response curve to individual animal number of WDS versus resulting plasma concentration. Behavioral and electrophysiological data are expressed as mean ± standard error of the mean (S.E.M.). Results were analyzed using one-way analysis of variance (ANOVA) with Dunnett’s multiple-comparisons post-hoc test for significance relative to vehicle. […] Actual gram values are plotted on a logarithmic scale Y-axis of the figures for convenience. Statistical calculations and graphs were made using GraphPad Prism 5.01 (GraphPad Software Inc, San Diego, CA). Percent responders to menthol stimulation in the ex vivo skin-nerve preparation were compared under vehicle and antagonist conditions through the use of Fisher’s exact test. Responses of C fibers to increasing mechanical forces under vehicle or antagonist conditions were compared using a two-way ANOVA with a Bonferonni post-hoc analysis."}}, "data": [{"smiles": "COc1cc(CN(CCN)C(=O)OC(C)c2ccccc2)ccc1OCc1ccccc1", "note": "(centres unmarked) [PBMC]", "values": [{"measurement": "effect on cold hypersensitivity after CFA or peripheral nerve injury", "setting": "[1]", "result": "attenuated cold hypersensitivity"}]}, {"smiles": "CNC1=Nc2ccc(Cl)cc2C(c2ccccc2)=[N+]([O-])C1", "note": "[chlordiazepoxide, Chlordiazepoxide, reference compound]", "values": [{"measurement": "total distance traveled, open field (positive control)", "setting": "[2]", "result": "9423 ± 745", "unit": "cm"}]}, {"smiles": "NCC1(CC(=O)O)CCCCC1", "note": "[gabapentin, reference compound]", "values": [{"measurement": "tactile threshold (von Frey), SNL model (positive control)", "setting": "[3]", "result": "12.4 ± 1.2", "unit": "g"}]}, {"smiles": "O=C1NC(c2cccc([N+](=O)[O-])c2)=CCN1c1ccccc1O", "note": "[icilin, reference compound]", "values": [{"measurement": "ED80 for induction of wet-dog shakes", "setting": "[4]; icilin i.p. 0.3, 0.5, 0.75, 1 mg/kg", "result": "less than 0.5 mg/kg"}, {"measurement": "ED90 for induction of wet-dog shakes", "setting": "[4]; icilin i.p. 0.3–1.0 mg/kg dose-response, interval 0.28–0.75, data not shown", "result": 0.46, "unit": "mg/kg"}]}]}
